Our source for the IC50 values is patent US8440652B2, “MST1 kinase inhibitors and methods of their use” (Lexicon Pharmaceuticals, Inc., priority 2011, dated 2013).

This test concerns the target T1, MST1 (Homo sapiens, UniProt Q13043).
T1 sequence (Q13043 1-487): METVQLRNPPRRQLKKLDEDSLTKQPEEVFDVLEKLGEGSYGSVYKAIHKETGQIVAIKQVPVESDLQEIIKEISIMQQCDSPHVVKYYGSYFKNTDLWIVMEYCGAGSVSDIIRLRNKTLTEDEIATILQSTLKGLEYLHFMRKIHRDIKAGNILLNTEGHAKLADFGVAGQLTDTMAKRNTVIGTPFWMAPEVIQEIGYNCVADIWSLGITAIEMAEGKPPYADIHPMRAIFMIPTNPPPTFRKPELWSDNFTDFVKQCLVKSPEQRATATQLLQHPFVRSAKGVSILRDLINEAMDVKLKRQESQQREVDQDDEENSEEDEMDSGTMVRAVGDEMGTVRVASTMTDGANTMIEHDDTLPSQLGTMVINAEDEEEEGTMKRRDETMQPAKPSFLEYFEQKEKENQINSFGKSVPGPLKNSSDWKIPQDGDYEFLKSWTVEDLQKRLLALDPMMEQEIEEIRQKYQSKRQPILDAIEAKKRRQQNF
Put plainly: In vitro measurement of MST1 inhibition (Z′-Lyte kinase assay). Format: biochemical. The procedure:
Assays were performed in low-volume 384-well black proxiplates (Perkin Elmer, PE-Blk-Proxi-6008269). Eight compounds were first diluted into LDV (Echo) plates using a Multiprobe, at a starting concentration of 1 mM compound in 100% DMSO. Using the ECHO, 75 nl compound was pinged into 384-well proxiplates. The starting concentration of compound in each assay plate is 7.5 uM, followed by 3-fold dilutions, to give quadruplicate ten-point concentration curves. A 3× solution of MST1 enzyme in kinase buffer (Invitrogen, PR4940C) was added to wells containing compound or DMSO controls, followed by a 10 minute preincubation step. Reactions were initiated by adding 5 μL of a mixture of ATP and Z′-Lyte S/T Pep 7 (Invitrogen, PV3180) and proceeded at RT for 1 hour. […] At the end of the kinase reaction, 10 ul of developing solution (Invitrogen, catalog #PR4876B; development buffer A diluted […] in development buffer B) was added to each well and incubated at RT for 1 hr. All wells were read on a Tecan at 400 nm excitation and 460 nm/530 nm emission. Plus and minus enzyme controls were used to calculate percent inhibition and IC50 curves were generated using Excel.

Where [1] appears, read: 1 μM ATP, read-out: IC50 (μM) 1 μM ATP.
[2] abbreviates: 50 μM ATP, read-out: IC50 (μM) 50 μM ATP.

Where two headings read alike, the source gives them in different places. A value given as a limit tells only on which side of the number the result lay.

By IC50 is commonly meant the midpoint of a concentration-inhibition curve. For `N#CC1(c2ccc(-c3cnc(N)c(-c4ccc5c(c4)CCNC5=O)n3)cc2)CCCC1` [1-(4-(5-amino-6-(1-oxo-1,2,3,4-tetrahydroisoquinolin-6-yl)pyrazin-2-yl)phenyl)cyclopentanecarbonitrile], the IC50 was under 0.01 µM under setting [1] and under 0.01 µM under setting [2].
For `N#CC1(c2ccc(-c3cnc(N)c(-c4ccc5c(=O)[nH]ccc5c4)n3)cc2)CC1` [1-(4-(5-amino-6-(1-oxo-1,2-dihydroisoquinolin-6-yl)pyrazin-2-yl)phenyl)cyclopropanecarbonitrile], the IC50 was under 0.05 µM under setting [1] and under 0.01 µM under setting [2].
For `N#CC1(c2ccc(-c3cnc(N)c(-c4ccc5c(c4)C4(CC4)CNC5=O)n3)cc2)CC1` [1-(4-(5-amino-6-(1′-oxo-2′,3′-dihydro-1′H-spiro[cyclopropane-1,4′-isoquinolin]-6′-yl)pyrazin-2-yl)phenyl)cyclopropanecarbonitrile], the IC50 was under 0.01 µM under setting [1] and under 0.01 µM under setting [2].
With `N#CC1(c2ccc(-c3cnc(N)c(-c4ccc5c(c4)C4(CC4)NC5=O)n3)cc2)CC1` [1-(4-(5-amino-6-(3′-oxospiro[cyclopropane-1,1′-isoindolin]-6′-yl)pyrazin-2-yl)phenyl)cyclopropanecarbonitrile], the IC50 runs as follows: under setting [1], under 0.05 µM; under setting [2], under 0.01 µM.
As for `CC1(C)CNC(=O)c2ccc(-c3nc(-c4ccc(C5(C#N)CC5)cc4)cnc3N)cc21` [1-(4-(5-amino-6-(4,4-dimethyl-1-oxo-1,2,3,4-tetrahydroisoquinolin-6-yl)pyrazin-2-yl)phenyl)cyclopropanecarbonitrile], the IC50 is under 0.01 µM under setting [1] and under 0.01 µM under setting [2].
In the case of `N#CC1(c2ccc(-c3cc(-c4ccc5c(c4)CCNC5=O)c(N)nn3)cc2)CC1` [1-(4-(6-amino-5-(1-oxo-1,2,3,4-tetrahydroisoquinolin-6-yl)pyridazin-3-yl)phenyl)cyclopropanecarbonitrile], the IC50 was under 0.15 µM under setting [1] and under 0.15 µM under setting [2].
In the case of `N#CC1(c2ccc(-c3cnc(N)c(-c4ccc5c(c4)CCNC5=O)c3)cc2)CC1` [1-(4-(6-amino-5-(1-oxo-1,2,3,4-tetrahydroisoquinolin-6-yl)pyridin-3-yl)phenyl)cyclopropanecarbonitrile], the IC50 under setting [1] was under 0.05 µM and the IC50 under setting [2] was under 0.05 µM.
For `N#CCn1cc(-c2cnc(N)c(-c3ccc4c(c3)CCNC4=O)n2)cn1` [2-(4-(5-amino-6-(1-oxo-1,2,3,4-tetrahydroisoquinolin-6-yl)pyrazin-2-yl)-1H-pyrazol-1-yl)acetonitrile], the IC50 reads like this: under setting [1], under 0.15 µM; under setting [2], under 0.05 µM.
With `Cc1cc(-c2cnc(N)c(-c3ccc4c(c3)CCNC4=O)n2)ccc1C(C)(C)C#N` [2-(4-(5-amino-6-(1-oxo-1,2,3,4-tetrahydroisoquinolin-6-yl)pyrazin-2-yl)-2-methylphenyl)-2-methylpropanenitrile], the IC50 was under 0.05 µM under setting [1] and under 0.01 µM under setting [2].
In the case of `CC(C)(Oc1ccc(-c2cnc(N)c(-c3ccc4c(c3)CCNC4=O)n2)cc1)C(N)=O` [2-(4-(5-amino-6-(1-oxo-1,2,3,4-tetrahydroisoquinolin-6-yl)pyrazin-2-yl)phenoxy)-2-methylpropanamide], the IC50 is under 0.05 µM under setting [1] and under 0.01 µM under setting [2].
As for `N#CCOc1ccc(-c2cnc(N)c(-c3ccc4c(c3)CCNC4=O)n2)cc1` [2-(4-(5-amino-6-(1-oxo-1,2,3,4-tetrahydroisoquinolin-6-yl)pyrazin-2-yl)phenoxy)acetonitrile], the IC50 under setting [1] was under 0.15 µM and the IC50 under setting [2] is under 0.05 µM.
For `CC(C)(C#N)c1ccc(-c2cnc(N)c(-c3ccc4c(c3)CCNC4=O)n2)cc1` [2-(4-(5-amino-6-(1-oxo-1,2,3,4-tetrahydroisoquinolin-6-yl)pyrazin-2-yl)phenyl)-2-methylpropanenitrile], in that order: under 0.05 µM and under 0.01 µM.
Turning to `N#CC1CC1c1ccc(-c2cnc(N)c(-c3ccc4c(c3)CCNC4=O)n2)cc1` (stereo not shown) [2-(4-(5-amino-6-(1-oxo-1,2,3,4-tetrahydroisoquinolin-6-yl)pyrazin-2-yl)phenyl)cyclopropanecarbonitrile], the IC50 reads like this: under setting [1], under 0.05 µM; under setting [2], under 0.01 µM.
`CC(C)(C#N)c1ccc(-c2cnc(N)c(-c3ccc4c(=O)[nH]ccc4c3)n2)cc1` [2-(4-(5-amino-6-(1-oxo-1,2-dihydroisoquinolin-6-yl)pyrazin-2-yl)phenyl)-2-methylpropanenitrile]: the IC50 reads like this: under setting [1], under 0.05 µM; under setting [2], under 0.01 µM.
For the molecule `CC(C)(C#N)c1ccc(-c2cnc(N)c(-c3ccc4c(c3)CCNC4=O)n2)s1` [2-(5-(5-amino-6-(1-oxo-1,2,3,4-tetrahydroisoquinolin-6-yl)pyrazin-2-yl)thiophen-2-yl)-2-methylpropanenitrile], the IC50 was under 0.05 µM under setting [1] and under 0.01 µM under setting [2].
For `N#CCc1ccc(-c2cnc(N)c(-c3ccc4c(c3)CCNC4=O)n2)s1` [2-(5-(5-amino-6-(1-oxo-1,2,3,4-tetrahydroisoquinolin-6-yl)pyrazin-2-yl)thiophen-2-yl)acetonitrile], in that order: under 0.05 µM and under 0.01 µM.
As to `CC(C)(C#N)c1ccc(-c2cnc(N)c(-c3ccc4c(c3)CCNC4=O)c2)cn1` [2-(6′-amino-5′-(1-oxo-1,2,3,4-tetrahydroisoquinolin-6-yl)-[3,3′-bipyridin]-6-yl)-2-methylpropanenitrile], the IC50 is under 0.05 µM under setting [1] and under 0.05 µM under setting [2].
Turning to `CCN(CC)S(=O)(=O)c1ccc(-c2cnc(N)c(-c3ccc(C(N)=O)cn3)c2)cc1` [2′-amino-5′-(4-(N,N-diethylsulfamoyl)phenyl)-[2,3′-bipyridine]-5-carboxamide], the IC50 is under 0.05 µM under setting [1] and under 0.01 µM under setting [2].
For the molecule `CCNS(=O)(=O)c1ccc(-c2cnc(N)c(-c3ccc(C(N)=O)cn3)c2)cc1` [2′-amino-5′-(4-(N-ethylsulfamoyl)phenyl)-[2,3′-bipyridine]-5-carboxamide], the IC50 by setting is: under setting [1], under 0.05 µM; under setting [2], under 0.01 µM.
`NCC1CCC(NC(=O)c2nc(-c3ccc(S(=O)(=O)NC4CC4)cc3)cnc2N)CC1` (stereo not shown) [3-amino-N-(4-(aminomethyl)cyclohexyl)-6-(4-(N-cyclopropylsulfamoyl)phenyl)pyrazine-2-carboxamide]: the IC50 reads like this: under setting [1], under 0.05 µM; under setting [2], under 0.01 µM.
Take `CCCC(C)NC(=O)c1nc(-c2cc(OC)c(OC)c(OC)c2)cnc1N` (stereo not shown) [3-amino-N-(pentan-2-yl)-6-(3,4,5-trimethoxyphenyl)pyrazine-2-carboxamide]: the IC50 under setting [2] was under 0.15 µM.
The same measure, in the same setting: the result for `COc1ccc(-c2cnc(N)c(C(=O)NC3CCCCC3)n2)cc1OC` [3-amino-N-cyclohexyl-6-(3,4-dimethoxyphenyl)pyrazine-2-carboxamide] reads under 0.15 µM.
`CCNS(=O)(=O)c1ccc(-c2cnc(N)c(C(=O)NC3CCCCC3)n2)cc1` [3-amino-N-cyclohexyl-6-(4-(N-ethylsulfamoyl)phenyl)pyrazine-2-carboxamide]: the IC50 under setting [1] is under 0.15 µM and the IC50 under setting [2] is under 0.05 µM.
For `COCc1ccc(-c2cnc(N)c(C(=O)NC3CCCCC3)n2)cc1` [3-amino-N-cyclohexyl-6-(4-(methoxymethyl)phenyl)pyrazine-2-carboxamide], the IC50 under setting [2] is under 0.15 µM.
For the molecule `CN(C1CC1)S(=O)(=O)c1ccc(-c2cnc(N)c(C3=CCN(C(=O)CC#N)CC3)c2)cc1` [4-(2-amino-1′-(2-cyanoacetyl)-1′,2′,3′,6′-tetrahydro-[3,4′-bipyridin]-5-yl)-N-cyclopropyl-N-methylbenzenesulfonamide], the IC50 is, setting by setting: under setting [1], under 0.15 µM; under setting [2], under 0.15 µM.
With `NC(=O)c1ccc(-c2cc(-c3cn[nH]c3)cnc2N)cc1` [4-(2-amino-5-(1H-pyrazol-4-yl)pyridin-3yl)benzamide], under setting [2], the IC50 was under 0.15 µM.
Still for that read-out and setting: the result for `NC(=O)c1ccc(-c2cc(-c3ccc(S(=O)(=O)NC4CC4)cc3Cl)cnc2N)cc1` [4-(2-amino-5-(2-chloro-4-(N-cyclopropylsulfamoyl)phenyl)pyridin-3-yl)benzamide] reads under 0.15 µM.
Same read-out and setting: the figure for `CN(C)C(=O)COc1ccc(-c2cnc(N)c(-c3ccc(C(N)=O)cc3)c2)cc1` [4-(2-amino-5-(4-(2-(dimethylamino)-2-oxoethoxy)phenyl)pyridin-3-yl)benzamide] is under 0.15 µM.
As for `NC(=O)c1ccc(-c2cc(-c3ccc(CC(=O)N4CCCC4)cc3)cnc2N)cc1` [4-(2-amino-5-(4-(2-oxo-2-(pyrrolidin-1-yl)ethyl)phenyl)pyridin-3-yl)benzamide], the 50% inhibitory concentration (IC50) under setting [2] is under 0.15 µM.
Still for that read-out and setting: the figure for `CCN(CC)S(=O)(=O)c1ccc(-c2cnc(N)c(-c3ccc(C(N)=O)c(F)c3)c2)cc1` [4-(2-amino-5-(4-(N,N-diethylsulfamoyl)phenyl)pyridin-3-yl)-2-fluorobenzamide] is under 0.05 µM.
